Literature values, collected in US12096767B2, “Residual disinfectant composition” (Kimberly-Clark Worldwide, Inc., priority 2015, dated 2024).

Settings: determined at a temperature of 25° C.

pka1: 3.18
Structure (SMILES): O=CC(=O)O [glyoxylic acid]
